This experiment addresses full-length recombinant human NEK7 (Homo sapiens (Human), UniProt Q8TDX7). As to the kind of experiment: NEK7 Enzymatic Assay ([33P]-ATP, casein substrate). It is filed as biochemical. Here is the method: Casein substrate (from bovine milk, hydrolyzed and partially dephosphorylated mixture of α, β and a caseins, obtained from Sigma Aldrich, catalogue #C4765, diluted in distilled water to a final concentration of 1 mg/mL) and full-length recombinant human NEK7 (expressed by baculovirus in Sf9 insect cells using a N-terminal GST tag, obtained from SignalChem, catalogue #N09-10G, 0.1 μg/μL) were mixed in assay buffer (20 mM Hepes pH 7.5, 10 mM MgCl2, 1 mM EGTA, 0.02% Brij35, 0.02 mg/ml BSA, 0.1 mM Na3VO4, 2 mM DTT, 1% DMSO). Compounds of interest (serial 3-fold dilution in DMSO from 10 μM to 0.5 nM) or vehicle (1% DMSO) were dispensed into the kinase reaction mixture by Acoustic technology (Echo550; nanoliter range). After incubation at room temperature for 20 minutes, the kinase reaction was initiated by addition of [^33P]-ATP (specific activity […]) and the mixture was incubated at room temperature for 2 hours. The reaction was then stopped by spotting the reaction mixture on strips of phosphocellulose P81 paper. Following washing, the radioactivity of the P81 paper was measured and kinase activity data were expressed as the percent remaining kinase activity in test samples compared to vehicle reactions. IC50 values and curve fits were obtained using Prism (GraphPad Software).

Chain of full-length recombinant human NEK7 (Q8TDX7 whole entry): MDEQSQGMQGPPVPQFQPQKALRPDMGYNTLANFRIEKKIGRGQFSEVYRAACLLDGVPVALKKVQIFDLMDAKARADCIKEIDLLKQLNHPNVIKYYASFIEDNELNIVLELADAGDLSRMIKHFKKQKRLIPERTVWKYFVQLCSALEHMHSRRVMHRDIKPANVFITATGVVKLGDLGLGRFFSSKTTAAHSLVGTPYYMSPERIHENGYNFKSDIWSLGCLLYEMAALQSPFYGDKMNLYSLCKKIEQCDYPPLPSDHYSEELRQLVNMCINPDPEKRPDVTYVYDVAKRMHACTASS

In the case of `CC(C)(C)c1cc(NC(=O)Nc2ccc(-c3cn(C4CC4)c4ncnc(N)c34)cc2)on1` [Example 13, 1-(4-(4-amino-7-cyclopropyl-7H-pyrrolo[2,3-d]pyrimidin-5-yl)phenyl)-3-(3-(tert-butyl)isoxazol-5-yl)urea], the IC50 fell in the range of 0.301 to 0.5 µM.
With `Nc1ncnc2c1c(-c1ccc(NC(=O)Nc3cc(C4(C(F)(F)F)CCC4)no3)c(F)c1)cn2C1CC1` [Example 45, 1-(4-(4-amino-7-cyclopropyl-7H-pyrrolo[2,3-d]pyrimidin-5-yl)-2-fluorophenyl)-3-(3-(1-(trifluoromethyl)cyclobutyl)isoxazol-5-yl)urea], the IC50 was 0.151 to 0.3 µM.
As for `Nc1ncnc2c1c(-c1ccc(NC(=O)Nc3cc(C4(C(F)(F)F)CC4)no3)c(F)c1)cn2CCO` [Example 52, 1-(4-(4-amino-7-(2-hydroxyethyl)-7H-pyrrolo[2,3-d]pyrimidin-5-yl)-2-fluorophenyl)-3-(3-(1-(trifluoromethyl)cyclopropyl)isoxazol-5-yl)urea], the IC50 was less than 0.15 µM.
As to `Nc1ncnc2c1c(-c1ccc(NC(=O)Nc3cc(C4(C(F)(F)F)CC4)on3)c(F)c1)cn2CCO` [Example 61, 1-(4-(4-amino-7-(2-hydroxyethyl)-7H-pyrrolo[2,3-d]pyrimidin-5-yl)-2-fluorophenyl)-3-(5-(1-(trifluoromethyl)cyclopropyl)isoxazol-3-yl)urea], the IC50 was less than 0.15 µM.
`COCCn1cc(-c2ccc(NC(=O)Nc3cc(C4(C(F)(F)F)CC4)no3)c(F)c2)c2c(N)ncnc21` [Example 51, 1-(4-(4-amino-7-(2-methoxyethyl)-7H-pyrrolo[2,3-d]pyrimidin-5-yl)-2-fluorophenyl)-3-(3-(1-(trifluoromethyl)cyclopropyl)isoxazol-5-yl)urea]: the IC50 was less than 0.15 µM.
As to `CC(C)(c1cc(NC(=O)Nc2ccc(-c3cn(C4CC4)c4ncnc(N)c34)cc2F)on1)C(F)(F)F` [Example 12, 1-(4-(4-amino-7-cyclopropyl-7H-pyrrolo[2,3-d]pyrimidin-5-yl)-2-fluorophenyl)-3-(3-(1,1,1-trifluoro-2-methylpropan-2-yl)isoxazol-5-yl)urea], the IC50 lay within 0.151 to 0.3 µM.
Take `Nc1ncnc2c1c(-c1ccc(NC(=O)Nc3cc(CO)no3)c(F)c1)cn2C1CC1` [Example 36, 1-(4-(4-amino-7-cyclopropyl-7H-pyrrolo[2,3-d]pyrimidin-5-yl)-2-fluorophenyl)-3-(3-(hydroxymethyl)isoxazol-5-yl)urea]: the half-maximal inhibitory concentration (IC50) is 0.501 to 1.5 µM.
`Nc1ncnc2c1c(-c1cnc(NC(=O)Nc3cc(C4(C(F)(F)F)CC4)no3)c(F)c1)cn2C1CC1` [Example 44]: the IC50 lay within 0.501 to 1.5 µM.
“1-(4-(4-amino-7-(2-hydroxy-2-methylpropyl)-7H-pyrrolo[2,3-d]pyrimidin-5-yl)-2-fluorophenyl)-3-(5-(1-(trifluoromethyl)cyclopropyl)isoxazol-3-yl)urea [Example 47]”: the IC50 is less than 0.15 µM.
`N#Cc1cc(-c2cn(C3CC3)c3ncnc(N)c23)ccc1NC(=O)Nc1cc(C2(C(F)(F)F)CC2)no1` [Example 50, 1-(4-(4-amino-7-cyclopropyl-7H-pyrrolo[2,3-d]pyrimidin-5-yl)-2-cyanophenyl)-3-(3-(1-(trifluoromethyl)cyclopropyl)isoxazol-5-yl)urea]: the IC50 was more than 1.5 µM.
Turning to `Nc1ncnc2c1c(-c1ccc(NC(=O)Nc3cc(C4(C(F)(F)F)CC4)no3)c(F)c1)cn2-c1cccnc1` [Example 24, 1-(4-(4-amino-7-(pyridin-3-yl)-7H-pyrrolo[2,3-d]pyrimidin-5-yl)-2-fluorophenyl)-3-(3-(1-(trifluoromethyl)cyclopropyl)isoxazol-5-yl)urea], the IC50 lay within 0.501 to 1.5 µM.
The figure for `CC(C)(C)c1nsc(NC(=O)Nc2ccc(-c3cn(C4CC4)c4ncnc(N)c34)cc2F)n1` [Example 21, 1-(4-(4-amino-7-cyclopropyl-7H-pyrrolo[2,3-d]pyrimidin-5-yl)-2-fluorophenyl)-3-(3-(tert-butyl)-1,2,4-thiadiazol-5-yl)urea] is more than 1.5 µM; for `CC(C)(C)c1cc(NC(=O)Nc2ccc(-c3cn(C4CC4)c4ncnc(N)c34)cc2F)sn1` [Example 20, 1-(4-(4-amino-7-cyclopropyl-7H-pyrrolo[2,3-d]pyrimidin-5-yl)-2-fluorophenyl)-3-(3-(tert-butyl)isothiazol-5-yl)urea] it is more than 1.5 µM.
As to `CN1CCC(n2cc(-c3ccc(NC(=O)Nc4cc(C5(C(F)(F)F)CC5)no4)c(F)c3)c3c(N)ncnc32)C1` (stereo not shown) [Example 56, 1-(4-(4-amino-7-(1-methylpyrrolidin-3-yl)-7H-pyrrolo[2,3-d]pyrimidin-5-yl)-2-fluorophenyl)-3-(3-(1-(trifluoromethyl)cyclopropyl)isoxazol-5-yl)urea], the IC50 is 0.301 to 0.5 µM.
Regarding `Nc1ncnc2c1c(-c1ccc(NC(=O)Nc3cc(C4(C(F)(F)F)CC4)on3)c(F)c1)cn2C1CCC1` [Example 58, 1-(4-(4-amino-7-cyclobutyl-7H-pyrrolo[2,3-d]pyrimidin-5-yl)-2-fluorophenyl)-3-(5-(1-(trifluoromethyl)cyclopropyl)isoxazol-3-yl)urea], the IC50 fell in the range of 0.501 to 1.5 µM.
Regarding `Nc1nccc2c1c(-c1ccc(NC(=O)Nc3cc(C4(C(F)(F)F)CC4)no3)c(F)c1)cn2C1CC1` [Example 62, 1-(4-(4-amino-1-cyclopropyl-1H-pyrrolo[3,2-c]pyridin-3-yl)-2-fluorophenyl)-3-(3-(1-(trifluoromethyl)cyclopropyl)isoxazol-5-yl)urea], the IC50 is more than 1.5 µM.
For `COc1cc(-c2cn(C3CC3)c3ncnc(N)c23)ccc1NC(=O)Nc1cc(C2(C(F)(F)F)CC2)no1` [Example 55, 1-(4-(4-amino-7-cyclopropyl-7H-pyrrolo[2,3-d]pyrimidin-5-yl)-2-methoxyphenyl)-3-(3-(1-(trifluoromethyl)cyclopropyl)isoxazol-5-yl)urea] the value was more than 1.5 µM; for `Cc1cc(NC(=O)Nc2ccc(-c3cn(C4CC4)c4ncnc(N)c34)cc2F)on1` [Example 7, 1-(4-(4-amino-7-cyclopropyl-7H-pyrrolo[2,3-d]pyrimidin-5-yl)-2-fluorophenyl)-3-(3-methylisoxazol-5-yl)urea], 0.501 to 1.5 µM.
For the compound `CCc1cc(NC(=O)Nc2ccc(-c3cn(C4CC4)c4ncnc(N)c34)cc2F)on1` [Example 33, 1-(4-(4-amino-7-cyclopropyl-7H-pyrrolo[2,3-d]pyrimidin-5-yl)-2-fluorophenyl)-3-(3-ethylisoxazol-5-yl)urea], the IC50 is less than 0.15 µM.
For `Nc1ncnc2c1c(-c1ccc(NC(=O)Nc3cc(C4CC4)on3)c(F)c1)cn2C1CC1` [Example 6], the IC50 lay in the range of 0.301 to 0.5 µM.
For the compound `Nc1ncnc2c1c(-c1cc(F)c(NC(=O)Nc3cc(C4(C(F)(F)F)CC4)no3)c(F)c1)cn2C1CC1` [Example 41, 1-(4-(4-amino-7-cyclopropyl-7H-pyrrolo[2,3-d]pyrimidin-5-yl)-2,6-difluorophenyl)-3-(3-(1-(trifluoromethyl)cyclopropyl)isoxazol-5-yl)urea], the IC50 is more than 1.5 µM.
With `CC(C)(C)c1csc(NC(=O)Nc2ccc(-c3cn(C4CC4)c4ncnc(N)c34)cc2F)n1` [Example 18, 1-(4-(4-amino-7-cyclopropyl-7H-pyrrolo[2,3-d]pyrimidin-5-yl)-2-fluorophenyl)-3-(4-(tert-butyl)thiazol-2-yl)urea], the IC50 is more than 1.5 µM.
As to `Nc1ncnc2c1c(-c1ccc(NC(=O)Nc3cc(C4(C(F)(F)F)CC4)no3)c(Cl)c1)cn2C1CC1` [Example 54, 1-(4-(4-amino-7-cyclopropyl-7H-pyrrolo[2,3-d]pyrimidin-5-yl)-2-chlorophenyl)-3-(3-(1-(trifluoromethyl)cyclopropyl)isoxazol-5-yl)urea], the IC50 is more than 1.5 µM.
For `Nc1ncnc2c1c(-c1c(F)cc(NC(=O)Nc3cc(C4(C(F)(F)F)CC4)no3)cc1F)cn2C1CC1` [Example 43, 1-(4-(4-amino-7-cyclopropyl-7H-pyrrolo[2,3-d]pyrimidin-5-yl)-3,5-difluorophenyl)-3-(3-(1-(trifluoromethyl)cyclopropyl)isoxazol-5-yl)urea], the IC50 was more than 1.5 µM.
On to `Nc1ncnc2c1c(-c1ccc(NC(=O)Nc3cc(C4(C(F)(F)F)CC4)no3)cn1)cn2C1CC1` [Example 59, 1-(6-(4-amino-7-cyclopropyl-7H-pyrrolo[2,3-d]pyrimidin-5-yl)pyridin-3-yl)-3-(3-(1-(trifluoromethyl)cyclopropyl)isoxazol-5-yl)urea], for which the IC50 is more than 1.5 µM.
Regarding `Nc1ncnc2c1c(-c1ccc(NC(=O)Nc3cc(C4(C(F)(F)F)CC4)no3)c(CO)c1)cn2C1CC1` [Example 49, 1-(4-(4-amino-7-cyclopropyl-7H-pyrrolo[2,3-d]pyrimidin-5-yl)-2-(hydroxymethyl)phenyl)-3-(3-(1-(trifluoromethyl)cyclopropyl)isoxazol-5-yl)urea], the IC50 was more than 1.5 µM.
As for `Nc1ncnc2c1c(-c1ccc(NC(=O)Nc3cc(C4(C(F)(F)F)CC4)no3)c(F)c1)cn2C1CCC1` [Example 53, 1-(4-(4-amino-7-cyclobutyl-7H-pyrrolo[2,3-d]pyrimidin-5-yl)-2-fluorophenyl)-3-(3-(1-(trifluoromethyl)cyclopropyl)isoxazol-5-yl)urea], the IC50 lay in the range of 0.301 to 0.5 µM.
`CC(C)(C)c1cc(NC(=O)Nc2ccc(-c3cn(C4CC4)c4ncnc(N)c34)cc2F)no1` [Example 4, 1-(4-(4-amino-7-cyclopropyl-7H-pyrrolo[2,3-d]pyrimidin-5-yl)-2-fluorophenyl)-3-(5-(tert-butyl)isoxazol-3-yl)urea]: the half-inhibitory concentration (IC50) is less than 0.15 µM.
